# Measured values published in patent publication US20240018136A1, “CDK Inhibitors And Their Use As Pharmaceuticals” (Prelude Therapeutics, Incorporated, priority 2022, published 2024).
# Legend:
# [1] = system: OVCAR3 p-RB; assay: pRB ICW assay in OVCAR3 cells; assay type: cell-based; conditions: Homo sapiens, OVCAR-3, incubated with compound for 2 hours
# Experimental: pRB ICW Assay in OVCAR3 Cells
# OVCAR3 cells were maintained in RPMI (Corning, Catalog #: 10-040-CV) supplemented with 10% v/v FBS (Gibco, Catalog #: 26140-079), 1% v/v Penicillin Streptomycin (Gibco, Catalog #15140-122.) OVCAR3 cells grown at log phase were trypsinized, counted, and resuspended in fresh medium to reach a final density of 6.7e4 cells/mL and 75 μL of culture were dispensed into a 384-well plate (Falcon, cat #353962) using Multidrop Combi dispenser (Thermo Scientific). The next day, compounds were dispensed as a 9-point, ½ log serial dilution using a Tecan digital dispenser (D300e), and cells were incubated with compound for 2 hours in a humidified incubator at 37° C. A reference compound at a final concentration of 10 μM was used as a control for maximum inhibition. Each compound was tested in duplicates in each experiment. At the end of the incubation, 25 μL of 16% paraformaldehyde (Electron Microscopy, cat #15710) was slowly added to each well and the plate was incubated at room temperature (RT) for 30 minutes to fix cells. Cells were then permeabilized by incubating with 50 μL/well of wash buffer (lx PBS with 0.1% Triton X-100) 5×5 minutes, followed by 1 hour blocking with 30 μL/well of Odyssey blocking buffer (Li-COR, cat #927-40000), all at RT. Anti-phosphor RB antibody (Cell signaling 8516S) was diluted 1:1000 in Odyssey blocking buffer and 20 μL was added to all wells and incubated overnight in 4° C. with gently rocking. The next day, cells were washed 5×5 min with 50 μL/well of wash buffer, followed with 1 hour incubation with secondary antibody and DRAQ5 diluted in Odyssey blocking buffer (1:500 dilution for secondary antibody and 1:2000 dilution for DRAQ5), 5×5 min washes, and one last wash with water. Plates were dried in 37° C. oven for 5 min and scanned using Li-COR Odyssey CLx imaging system to acquire intensities at 700 and 800 nm channels.
# [2] = target: T1, CDK4/Cyclin D1 (Homo sapiens, UniProt P11802); assay: CDK4/CyclinD1 enzymatic activity assay (TR-FRET); assay type: biochemical; conditions: ATP 2 mM final, read-out: CDK4_D1 IC50
# T1 construct: purchased ProQinase; host or cells: insect cell
# Experimental: CDK4/CyclinD1 Enzymatic Activity Assay
# (§1) The inhibitory activity of compounds was evaluated in vitro using TR-FRET assay with white 384-well low volume microplate (Greiner Bio-One). CDK4/Cyclin D1 catalyzed phosphorylation of peptide in the presence and absence of compounds was measured and used in IC5 determination. Recombinant protein complex CDK4/Cyclin D1, expressed from insect cell, was purchased from ProQinase. Testing compounds were dissolved in DMSO at 1 mM and tested in 9-dose IC50 mode. The reaction mixture was prepared by mixing CDK4/CyclinD1 (1 nM final), ULight-4E-BP1 (100 nM final, Perkinelmer, TRF0128-D), and ATP (2 mM final) in assay buffer (20 mM of HEPES pH 7.4, 1 mM of EGTA, 0.05% BSA, 0.005% Tween 20, and 1 mM TCEP). The compound of interest in DMSO was added to each well in 3-fold serial dilution by dispenser (TECAN D300E) to make a 9.9 μL of reaction mixture. After 20 minutes preincubation at room temperature, 0.1 μL MgCl2 (10 mM final) was added to initiate the reaction. Following a 45 minute incubation at 37° C., the reaction was stopped by addition of 2 μL of quenching buffer consisting of Lance detection buffer (Perkinelmer CR97-100C), LANCE Ultra Europium-anti-P-4E-BP1 (Perkinelmer, TRF0216-D), EDTA, and incubate at room temperature for an additional 60 minutes in the dark. The reaction signal was measured by Envision multimode plate reader (PerkinElmer, 2102-0010). IC50 values were determined by fitting the data to the standard 4 parameters with Hill Slope using GraphPad Prism software.
# [3] = target: CDK2/Cyclin E2 (Homo sapiens, UniProt P24941); assay: CDK2/CyclinE2 enzymatic activity assay (TR-FRET); assay type: biochemical; conditions: ATP 1 mM final, read-out: CDK2_E1 IC50
# Experimental: CDK2/CyclinE2 Enzymatic Activity Assay
# as §1, with “Bio-One). CDK2/Cyclin E2” for “Bio-One). CDK4/Cyclin D1”, “in IC50” for “in IC5”, “complex CDK2/Cyclin E2,” for “complex CDK4/Cyclin D1,”, “mixing CDK2/CyclinE2” for “mixing CDK4/CyclinD1”, “ULight-4E-BP1 (50” for “ULight-4E-BP1 (100”, “ATP (1” for “ATP (2”
# T1 sequence (P11802 whole entry): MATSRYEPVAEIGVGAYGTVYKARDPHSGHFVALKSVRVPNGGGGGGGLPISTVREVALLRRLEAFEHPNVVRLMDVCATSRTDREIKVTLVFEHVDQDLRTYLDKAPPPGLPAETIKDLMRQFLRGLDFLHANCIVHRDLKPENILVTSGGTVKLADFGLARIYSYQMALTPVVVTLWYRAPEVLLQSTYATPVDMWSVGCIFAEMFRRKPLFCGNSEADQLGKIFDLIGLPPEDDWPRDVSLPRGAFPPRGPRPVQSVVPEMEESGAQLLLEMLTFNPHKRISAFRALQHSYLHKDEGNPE
# T1 sequence (P24385 whole entry partner): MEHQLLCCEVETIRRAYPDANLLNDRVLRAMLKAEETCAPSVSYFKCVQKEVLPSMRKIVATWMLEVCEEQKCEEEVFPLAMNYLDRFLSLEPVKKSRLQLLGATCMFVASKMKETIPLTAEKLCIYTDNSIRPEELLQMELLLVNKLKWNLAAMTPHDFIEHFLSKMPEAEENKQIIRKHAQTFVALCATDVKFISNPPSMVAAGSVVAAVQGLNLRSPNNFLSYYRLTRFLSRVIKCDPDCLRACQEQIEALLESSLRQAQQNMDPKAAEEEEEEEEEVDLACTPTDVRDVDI
Compound,IC50 [1] [nM],IC50 [2] [nM],IC50 [3] [nM]
"CS(=O)(=O)N1CCC(Nc2ncc(C(F)(F)F)c(-c3cnc(N4CCCC4)s3)n2)CC1 [Example 1, N-(1-Methylsulfonylpiperidin-4-yl)-4-(2-pyrrolidin-1-yl-1,3-thiazol-5-yl)-5-(trifluoromethyl)pyrimidin-2-amine]",100 to 1000,≤ 100,≤ 100
"CS(=O)(=O)N1CCC(Nc2ncc(C(F)(F)F)c(-c3cnc(C4=CCOCC4)s3)n2)CC1 [Example 2, 4-[2-(3,6-Dihydro-2H-pyran-4-yl)-1,3-thiazol-5-yl]-N-(1-methyl-sulfonylpiperidin-4-yl)-5-(trifluoromethyl)pyrimidin-2-amine]",100 to 1000,≤ 100,100 to 1000
"CS(=O)(=O)N1CCC(Nc2ncc(C(F)(F)F)c(-c3cnc(C4CCOCC4)s3)n2)CC1 [Example 3, N-(1-methylsulfonylpiperidin-4-yl)-4-[2-(oxan-4-yl)-1,3-thiazol-5-yl]-5-(trifluoromethyl)pyrimidin-2-amine]",100 to 1000,≤ 100,≤ 100
"CS(=O)(=O)N1CCC(Nc2ncc(C(F)(F)F)c(-c3cnc(C4=CCCC4)s3)n2)CC1 [Example 4, 4-[2-(Cyclopenten-1-yl)-1,3-thiazol-5-yl]-N-(1-methylsulfonylpiperidin-4-yl)-5-(trifluoromethyl)pyrimidin-2-amine]",> 1000,≤ 100,≤ 100
"CS(=O)(=O)N1CCC(Nc2ncc(C(F)(F)F)c(-c3cnc(C4CCCC4)s3)n2)CC1 [Example 5, 4-(2-Cyclopentyl-1,3-thiazol-5-yl)-N-(1-methylsulfonylpiperidin-4-yl)-5-(trifluoromethyl)pyrimidin-2-amine]",–,≤ 100,≤ 100
"CS(=O)(=O)N1CCC(Nc2ncc(C(F)(F)F)c(-c3cnc(-c4ccc(CO)cc4)s3)n2)CC1 [Example 6, [4-[5-[2-[(1-Methylsulfonylpiperidin-4-yl)amino]-5-(trifluoromethyl)-pyrimidin-4-yl]-1,3-thiazol-2-yl]phenyl]methanol]",100 to 1000,≤ 100,≤ 100
"Cc1cc(C(C)O)ccc1-c1ncc(-c2nc(NC3CCN(S(C)(=O)=O)CC3)ncc2C(F)(F)F)s1 (centres unmarked) [Example 7, 1-[3-Methyl-4-[5-[2-[(1-methylsulfonylpiperidin-4-yl)amino]-5-(trifluoromethyl)pyrimidin-4-yl]-1,3-thiazol-2-yl]phenyl]ethanol]",100 to 1000,≤ 100,≤ 100
"Cc1cc(C(C)(C)O)ccc1-c1ncc(-c2nc(NC3CCN(S(C)(=O)=O)CC3)ncc2C(F)(F)F)s1 [Example 8, 2-[3-Methyl-4-[5-[2-[(1-methylsulfonylpiperidin-4-yl)amino]-5-(trifluoromethyl)pyrimidin-4-yl]-1,3-thiazol-2-yl]phenyl]propan-2-ol]",> 1000,100 to 1000,≤ 100
"Cc1nc(C)c(-c2nc(NC3CCN(S(C)(=O)=O)CC3)ncc2F)s1 [Example 16, 4-(2,4-dimethylthiazol-5-yl)-5-fluoro-N-(1-(methylsulfonyl)piperidin-4-yl)pyrimidin-2-amine]",–,> 1000,100 to 1000
"Cc1c(-c2ncc(-c3nc(NC4CCN(S(C)(=O)=O)CC4)ncc3C(F)(F)F)s2)cnn1CCO [Example 18, 2-[5-methyl-4-[5-[2-[(1-methylsulfonylpiperidin-4-yl)amino]-5-(trifluoromethyl)pyrimidin-4-yl]-1,3-thiazol-2-yl]pyrazol-1-yl]ethanol]",–,100 to 1000,≤ 100
"CS(=O)(=O)N1CCC(Nc2ncc(C(F)(F)F)c(-c3cnc(-c4ccccc4CO)s3)n2)CC1 [Example 23, [2-[5-[2-[(1-Methylsulfonylpiperidin-4-yl)amino]-5-(trifluoromethyl)pyrimidin-4-yl]-1,3-thiazol-2-yl]phenyl]methanol]",–,–,≤ 100
"Cc1ncc(-c2nc(NC3CCN(S(C)(=O)=O)CC3)ncc2C(F)F)s1 [Example 43, 5-(Difluoromethyl)-N-(1-methylsulfonylpiperidin-4-yl)-4-(2-methyl-1,3-thiazol-5-yl)pyrimidin-2-amine]",–,100 to 1000,≤ 100
"CCOc1ncc(-c2nc(NC3CCN(S(C)(=O)=O)CC3)ncc2C(F)F)s1 [Example 49, 5-(Difluoromethyl)-4-(2-ethoxy-1,3-thiazol-5-yl)-N-(1-methylsulfonylpiperidin-4-yl)pyrimidin-2-amine]",–,100 to 1000,100 to 1000
"COc1ncc(-c2nc(NC3CCN(S(C)(=O)=O)CC3)ncc2C(F)F)s1 [Example 50, 5-(difluoromethyl)-4-(2-methoxy-1,3-thiazol-5-yl)-N-(1-methylsulfonyl-piperidin-4-yl)pyrimidin-2-amine]",–,100 to 1000,≤ 100
"CC(C)Oc1ncc(-c2nc(NC3CCN(S(C)(=O)=O)CC3)ncc2C(F)F)s1 [Example 51, 5-(Difluoromethyl)-N-(1-methylsulfonylpiperidin-4-yl)-4-(2-propan-2-yloxy-1,3-thiazol-5-yl)pyrimidin-2-amine]",–,≤ 100,≤ 100
"COCc1ncc(-c2nc(NC3CCN(S(C)(=O)=O)CC3)ncc2C(F)(F)F)s1 [Example 53, 4-[2-(Methoxymethyl)-1,3-thiazol-5-yl]-N-(1-methylsulfonylpiperidin-4-yl)-5-(trifluoromethyl)pyrimidin-2-amine]",–,100 to 1000,≤ 100
"CCOC(=O)Nc1ncc(-c2nc(NC3CCN(S(C)(=O)=O)CC3)ncc2C(F)(F)F)s1 [Example 55, Ethyl N-[5-[2-[(1-methylsulfonylpiperidin-4-yl)amino]-5-(trifluoromethyl)pyrimidin-4-yl]-1,3-thiazol-2-yl]carbamate]",–,> 1000,100 to 1000
"CC(C)NC(=O)Nc1ncc(-c2nc(NC3CCN(S(C)(=O)=O)CC3)ncc2C(F)(F)F)s1 [Example 56, 1-[5-[2-[(1-Methylsulfonylpiperidin-4-yl)amino]-5-(trifluoromethyl)pyrimidin-4-yl]-1,3-thiazol-2-yl]-3-propan-2-ylurea]",–,> 1000,100 to 1000
"Cc1ncc(-c2nc(NC3CCN(S(C)(=O)=O)CC3)ncc2C(F)(F)F)o1 [Example 66, 4-(2-methyl-1,3-oxazol-5-yl)-N-(1-methylsulfonylpiperidin-4-yl)-5-(trifluoromethyl)pyrimidin-2-amine]",–,> 1000,100 to 1000
